According to ChEMBL document CHEMBL3045115, “Synthesis and antimycobacterial activity of novel 4-[5-(substituted phenyl)-1-phenyl-4,5-dihydro-1H-3-pyrazolyl]-2-methylphenol derivatives” (2006):
Converted amounts (≈) assume the structure as drawn.

System: Mycobacterium tuberculosis
Assay: Antimycobacterial activity against isoniazid-resistant Mycobacterium tuberculosis H37Rv ATCC 27294 using alamar blue staining by broth microdilution assay
Format: functional

Row | SMILES | MIC [µg/mL]
1 | COc1ccc(C2CC(c3ccc(O)c(C)c3)=NN2c2ccccc2)cc1 (configuration not stated) | 1.45 (≈ 4.05 µM)
2 | Cc1cc(C2=NN(c3ccccc3)C(c3ccc(Cl)cc3)C2)ccc1O (configuration not stated) | 1.24 (≈ 3.42 µM)
3 | Cc1cc(C2=NN(c3ccccc3)C(c3ccc(N(C)C)cc3)C2)ccc1O (configuration not stated) | 0.84 (≈ 2.26 µM)
4 | Cc1cc(C2=NN(c3ccccc3)C(c3ccccc3)C2)ccc1O (configuration not stated) | 1.6 (≈ 4.87 µM)
5 | COc1ccc(C2CC(c3ccc(O)c(C)c3)=NN2c2ccccc2)cc1OC (configuration not stated) | 1.16 (≈ 2.99 µM)
6 | COc1cc(C2CC(c3ccc(O)c(C)c3)=NN2c2ccccc2)cc(OC)c1OC (configuration not stated) | 1.86 (≈ 4.44 µM)
7 | Cc1cc(C2=NN(c3ccccc3)C(c3ccc(F)cc3)C2)ccc1O (configuration not stated) | 0.62 (≈ 1.79 µM)
8 | Cc1cc(C2=NN(c3ccccc3)C(c3ccccc3Cl)C2)ccc1O (configuration not stated) | 1 (≈ 2.76 µM)
9 | Cc1cc(C2=NN(c3ccccc3)C(c3c(Cl)cccc3Cl)C2)ccc1O (configuration not stated) | 0.92 (≈ 2.32 µM)
10 | Cc1cc(C2=NN(c3ccccc3)C(c3cccc([N+](=O)[O-])c3)C2)ccc1O (configuration not stated) | 1.96 (≈ 5.25 µM)
11 | Cc1cc(C2=NN(c3ccccc3)C(c3ccco3)C2)ccc1O (configuration not stated) | 0.81 (≈ 2.54 µM)
12 | NNC(=O)c1ccncc1 [ISONIAZID] | 0.63 (≈ 4.59 µM)
